Like-named read-outs stand apart in the source and are kept apart here.
How the values were obtained:
[1] = tested on: NCI-H1373 (human lung adenocarcinoma) cells; assay: Cell proliferation assay (CellTiter-Glo), NCI-H1373; assay type: cell-based; conditions: Homo sapiens, NCI-H1373, 144 h, read-out: NCI-H1373 GI50
His-GST-PARP7 = His-GST-PARP7 (Homo sapiens (Human), UniProt Q7Z3E1); assay: PARP7 biochemical assay; conditions: read-out: PARP7 IC50
Chain of His-GST-PARP7 (Q7Z3E1 whole entry): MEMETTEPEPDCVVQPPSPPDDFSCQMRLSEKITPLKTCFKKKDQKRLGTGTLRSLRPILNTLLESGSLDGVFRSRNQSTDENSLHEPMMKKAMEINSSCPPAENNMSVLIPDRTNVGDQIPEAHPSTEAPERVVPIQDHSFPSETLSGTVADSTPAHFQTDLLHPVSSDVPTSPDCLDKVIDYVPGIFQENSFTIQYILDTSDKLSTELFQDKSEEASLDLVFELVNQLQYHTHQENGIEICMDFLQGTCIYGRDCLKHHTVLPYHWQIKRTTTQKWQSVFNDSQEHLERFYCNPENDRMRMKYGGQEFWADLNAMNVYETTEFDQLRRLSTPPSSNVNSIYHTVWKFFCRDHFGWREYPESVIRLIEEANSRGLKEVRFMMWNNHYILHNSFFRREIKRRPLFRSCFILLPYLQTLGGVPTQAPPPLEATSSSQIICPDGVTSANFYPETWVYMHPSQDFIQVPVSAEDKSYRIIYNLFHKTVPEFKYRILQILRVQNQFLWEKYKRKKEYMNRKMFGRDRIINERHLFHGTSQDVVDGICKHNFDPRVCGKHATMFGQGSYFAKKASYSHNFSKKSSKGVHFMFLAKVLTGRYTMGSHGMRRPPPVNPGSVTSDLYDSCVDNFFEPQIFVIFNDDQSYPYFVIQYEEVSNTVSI

N#Cc1ccc(N2CCN(C(=O)c3cccc(Cc4n[nH]c(=O)c5ccc(Oc6ccccc6)cc45)c3)CC2)nc1 [Example 2, 6-(4-(3-((4-Oxo-7-phenoxy-3,4-dihydrophthalazin-1-yl)methyl)benzoyl)piperazin-1-yl)nicotinonitrile]
GI50 [1]: < 0.1 µM

N#Cc1ccc(N2CCN(C(=O)c3cccc(Cc4n[nH]c(=O)c5ccc(Cl)cc45)c3)CC2)nc1 [Example 5, 6-(4-(3-((7-Chloro-4-oxo-3,4-dihydrophthalazin-1-yl)methyl)benzoyl)piperazin-1-yl)nicotinonitrile]
GI50 [1]: 0.1 to 1 µM

N#Cc1ccc(N2CCN(C(=O)c3cccc(Cc4n[nH]c(=O)c5ccc(F)cc45)c3)CC2)nc1 [Example 6, 6-(4-(3-((7-Fluoro-4-oxo-3,4-dihydrophthalazin-1-yl)methyl)benzoyl)piperazin-1-yl)nicotinonitrile]
GI50 [1]: 0.1 to 1 µM

N#Cc1ccc(N2CCN(C(=O)c3cc(Cc4n[nH]c(=O)c5ccc(OCC6CC6)cc45)ccc3F)CC2)nc1 [Example 7, 6-(4-(5-((7-(Cyclopropylmethoxy)-4-oxo-3,4-dihydrophthalazin-1-yl)methyl)-2-fluorobenzoyl)piperazin-1-yl)nicotinonitrile]
GI50 [1]: < 0.1 µM

N#Cc1ccc(N2CCN(C(=O)c3cc(Cc4n[nH]c(=O)c5ccc(OCC(F)(F)F)cc45)ccc3F)CC2)nc1 [Example 9, 6-(4-(2-Fluoro-5-((4-oxo-7-(2,2,2-trifluoroethoxy)-3,4-dihydrophthalazin-1-yl)methyl)benzoyl)piperazin-1-yl)nicotinonitrile]
GI50 [1]: 0.1 to 1 µM | IC50 (His-GST-PARP7): < 0.05 µM

COC1CN(c2ccc3c(=O)[nH]nc(Cc4ccc(F)c(C(=O)N5CCN(c6ccc(C#N)cn6)CC5)c4)c3c2)C1 [Example 11, 6-(4-(2-Fluoro-5-((7-(3-methoxyazetidin-1-yl)-4-oxo-3,4-dihydrophthalazin-1-yl)methyl)benzoyl)piperazin-1-yl)nicotinonitrile]
GI50 [1]: 0.1 to 1 µM | IC50 (His-GST-PARP7): < 0.05 µM

N#Cc1ccc(N2CCN(C(=O)c3cc(Cc4n[nH]c(=O)c5ccc(NC6CC6)cc45)ccc3F)CC2)nc1 [Example 12, 6-(4-(5-((7-(Cyclopropylamino)-4-oxo-3,4-dihydrophthalazin-1-yl)methyl)-2-fluorobenzoyl)piperazin-1-yl)nicotinonitrile]
GI50 ([1]; 6 days, CellTiter-Glo): 0.1 to 1 µM | IC50 (His-GST-PARP7): < 0.05 µM

C#CCNc1ccc2c(=O)[nH]nc(Cc3ccc(F)c(C(=O)N4CCN(c5ccc(C#N)cn5)CC4)c3)c2c1 [Example 15, 6-(4-(2-Fluoro-5-((4-oxo-7-(prop-2-ynylamino)-3,4-dihydrophthalazin-1-yl)methyl)benzoyl)piperazin-1-yl)nicotinonitrile]
GI50 ([1]; 6 days, CellTiter-Glo): 1 to 5 µM | IC50 (His-GST-PARP7): < 0.05 µM

C#CCN(C)c1ccc2c(=O)[nH]nc(Cc3ccc(F)c(C(=O)N4CCN(c5ccc(C#N)cn5)CC4)c3)c2c1 [Example 17, 6-(4-(2-Fluoro-5-((7-(methyl(prop-2-ynyl)amino)-4-oxo-3,4-dihydrophthalazin-1-yl)methyl)benzoyl)piperazin-1-yl)nicotinonitrile]
GI50 ([1]; 6 days, CellTiter-Glo): 1 to 5 µM | IC50 (His-GST-PARP7): < 0.05 µM

CC#CCOc1ccc2c(=O)[nH]nc(Cc3ccc(F)c(C(=O)N4CCN(c5ccc(C#N)cn5)CC4)c3)c2c1 [Example 19, 6-(4-(5-((7-(But-2-ynyloxy)-4-oxo-3,4-dihydrophthalazin-1-yl)methyl)-2-fluorobenzoyl)piperazin-1-yl)nicotinonitrile]
GI50 ([1]; 6 days, CellTiter-Glo): 0.1 to 1 µM | IC50 (His-GST-PARP7): < 0.05 µM

N#Cc1ccc(N2CCN(C(=O)c3cc(Cc4n[nH]c(=O)c5ccc(OC(F)F)cc45)ccc3F)CC2)nc1 [Example 21, 6-(4-(5-((7-(Difluoromethoxy)-4-oxo-3,4-dihydrophthalazin-1-yl)methyl)-2-fluorobenzoyl)piperazin-1-yl)nicotinonitrile]
GI50 [1]: 0.1 to 1 µM | IC50 (His-GST-PARP7): < 0.05 µM

N#Cc1ccc(N2CCN(C(=O)c3cc(Cc4n[nH]c(=O)c5ccc(NCC(F)(F)F)cc45)ccc3F)CC2)nc1 [Example 22, 6-(4-(2-Fluoro-5-((4-oxo-7-((2,2,2-trifluoroethyl)amino)-3,4-dihydrophthalazin-1-yl)methyl)benzoyl)piperazin-1-yl)nicotinonitrile]
GI50 ([1]; 6 days, CellTiter-Glo): 1 to 5 µM | IC50 (His-GST-PARP7): < 0.05 µM

N#Cc1ccc(N2CCN(C(=O)c3cc(Cc4n[nH]c(=O)c5ccc(NC6CCC6)cc45)ccc3F)CC2)nc1 [Example 29, 6-(4-(5-((7-(Cyclobutylamino)-4-oxo-3,4-dihydrophthalazin-1-yl)methyl)-2-fluorobenzoyl)piperazin-1-yl)nicotinonitrile]
GI50 ([1]; 6 days, CellTiter-Glo): 0.1 to 1 µM | IC50 (His-GST-PARP7): < 0.05 µM

N#Cc1ccc(N2CCN(C(=O)c3cc(Cc4n[nH]c(=O)c5ccc(NCCC(F)(F)F)cc45)ccc3F)CC2)nc1 [Example 33, 6-(4-(2-Fluoro-5-((4-oxo-7-((3,3,3-trifluoropropyl)amino)-3,4-dihydrophthalazin-1-yl)methyl)benzoyl)piperazin-1-yl)nicotinonitrile]
GI50 ([1]; 6 days, CellTiter-Glo): 1 to 5 µM | IC50 (His-GST-PARP7): < 0.05 µM

CC#Cc1ccc2c(=O)[nH]nc(Cc3ccc(F)c(C(=O)N4CCN(C(=O)CC#N)CC4)c3)c2c1 [Example 58, 3-(4-(2-Fluoro-5-((4-oxo-7-(prop-1-ynyl)-3,4-dihydrophthalazin-1-yl)methyl)benzoyl)piperazin-1-yl)-3-oxopropanenitrile]
GI50 ([1]; 6 days, CellTiter-Glo): > 5 µM | IC50 (His-GST-PARP7): < 0.05 µM

CC#Cc1ccc2c(=O)[nH]nc(Cc3ccc(F)c(C(=O)N4CC5(C4)CN(c4ccc(C#N)cn4)C5)c3)c2c1 [Example 60, 6-(6-(2-Fluoro-5-((4-oxo-7-(prop-1-yn-1-yl)-3,4-dihydrophthalazin-1-yl)methyl)benzoyl)-2,6-diazaspiro[3.3]heptan-2-yl)nicotinonitrile]
GI50 ([1]; 6 days, CellTiter-Glo): 1 to 5 µM | IC50 (His-GST-PARP7): < 0.05 µM

CC#Cc1ccc2c(=O)[nH]nc(Cc3ccc(F)c(C(=O)N4CCn5c(nnc5C5CC5)C4)c3)c2c1 [Example 63, 4-[[3-(3-cyclopropyl-6,8-dihydro-5H-[1,2,4]triazolo[4,3-a]pyrazine-7-carbonyl)-4-fluoro-phenyl]methyl]-6-prop-1-ynyl-2H-phthalazin-1-one]
GI50 ([1]; 6 days, CellTiter-Glo): > 5 µM | IC50 (His-GST-PARP7): < 0.05 µM

CC#Cc1ccc2c(=O)[nH]nc(Cc3ccc(F)c(C(=O)N4C[C@H]5C[C@@H]4CN5c4ccc(C#N)cn4)c3)c2c1 [Example 66, 6-((1R,4R)-5-(2-Fluoro-5-((4-oxo-7-(prop-1-ynyl)-3,4-dihydrophthalazin-1-yl)methyl)benzoyl)-2,5-diazabicyclo[2.2.1]heptan-2-yl)nicotinonitrile]
GI50 ([1]; 6 days, CellTiter-Glo): 1 to 5 µM | IC50 (His-GST-PARP7): < 0.05 µM

CC#Cc1ccc2c(=O)[nH]nc(Cc3ccc(F)c(C(=O)N4CCC(F)(c5ccc(C#N)cn5)CC4)c3)c2c1 [Example 67, 6-(4-Fluoro-1-(2-fluoro-5-((4-oxo-7-(prop-1-yn-1-yl)-3,4-dihydrophthalazin-1-yl)methyl)benzoyl)piperidin-4-yl)nicotinonitrile]
GI50 ([1]; 6 days, CellTiter-Glo): 1 to 5 µM | IC50 (His-GST-PARP7): 0.05 to 0.1 µM

CC#Cc1ccc2c(=O)[nH]nc(Cc3ccc(F)c(C(=O)N4CC(N(C)c5cc(C#N)ccn5)C4)c3)c2c1 [Example 69]
GI50 ([1]; 6 days, CellTiter-Glo): > 5 µM | IC50 (His-GST-PARP7): > 2 µM

CC#Cc1ccc2c(=O)[nH]nc(Cc3ccc(F)c(C(=O)N4CC(N(C)c5ccc(C#N)cn5)C4)c3)c2c1 [Example 70, 6-((1-(2-Fluoro-5-((4-oxo-7-(prop-1-yn-1-yl)-3,4-dihydrophthalazin-1-yl)methyl)benzoyl)azetidin-3-yl)(methyl)amino)nicotinonitrile 2,2,2-trifluoroacetate]
GI50 ([1]; 6 days, CellTiter-Glo): > 5 µM | IC50 (His-GST-PARP7): > 2 µM

O=C(NC1CN(c2ncc(C(F)(F)F)cn2)C1)c1cc(Cc2n[nH]c(=O)c3ccc(OC4CCC4)cc23)ccc1F [Example 205, 5-((7-Cyclobutoxy-4-oxo-3,4-dihydrophthalazin-1-yl)methyl)-2-fluoro-N-(1-(5-(trifluoromethyl)pyrimidin-2-yl)azetidin-3-yl)benzamide]
IC50 (His-GST-PARP7): > 2 µM

O=C(C1CC1)N1CCN(c2noc3c(Cc4n[nH]c(=O)c5ccc(OC6CCC6)cc45)cccc23)CC1 [Example 206, 6-Cyclobutoxy-4-((3-(4-(cyclopropanecarbonyl)piperazin-1-yl)benzo[d]isoxazol-7-yl)methyl)phthalazin-1(2H)-one]
IC50 (His-GST-PARP7): 0.1 to 0.5 µM

O=c1[nH]nc(Cc2cccc3c(N4CCN(c5ncc(C(F)(F)F)cn5)CC4)noc23)c2cc(OC3CCC3)ccc12 [Example 207, 6-Cyclobutoxy-4-((3-(4-(5-(trifluoromethyl)pyrimidin-2-yl)piperazin-1-yl)benzo[d]isoxazol-7-yl)methyl)phthalazin-1(2H)-one]
IC50 (His-GST-PARP7): > 2 µM

O=c1[nH]nc(Cc2ccc3onc(N4CCN(c5ncc(C(F)(F)F)cn5)CC4)c3c2)c2cc(OC3CCC3)ccc12 [Example 209, 6-Cyclobutoxy-4-((3-(4-(5-(trifluoromethyl)pyrimidin-2-yl)piperazin-1-yl)benzo[d]isoxazol-5-yl)methyl)phthalazin-1(2H)-one]
IC50 (His-GST-PARP7): > 2 µM

O=C(C1CC1)N1CCN(c2noc3ccc(Cc4n[nH]c(=O)c5ccc(OC6CCC6)cc45)cc23)CC1 [Example 210, 6-cyclobutoxy-4-((3-(4-(cyclopropanecarbonyl)piperazin-1-yl)benzo[d]isoxazol-5-yl)methyl)phthalazin-1(2H)-one]
IC50 (His-GST-PARP7): 0.5 to 2 µM

O=c1[nH]nc(Cc2ccc3c(N4CCN(c5ncc(C(F)(F)F)cn5)CC4)noc3c2)c2cc(OC3CCC3)ccc12 [Example 212, 6-Cyclobutoxy-4-((3-(4-(5-(trifluoromethyl)pyrimidin-2-yl)piperazin-1-yl)benzo[d]isoxazol-6-yl)methyl)phthalazin-1(2H)-one]
IC50 (His-GST-PARP7): > 2 µM

O=C(C1CC1)N1CCN(c2noc3cc(Cc4n[nH]c(=O)c5ccc(OC6CCC6)cc45)ccc23)CC1 [Example 213, 6-cyclobutoxy-4-((3-(4-(cyclopropanecarbonyl)piperazin-1-yl)benzo[d]isoxazol-6-yl)methyl)phthalazin-1(2H)-one]
IC50 (His-GST-PARP7): > 2 µM

N#Cc1ccc(N2CCN(c3noc4cc(Cc5n[nH]c(=O)c6ccc(OC7CCC7)cc56)ccc34)CC2)nc1 [Example 214, 6-(4-(6-((7-Cyclobutoxy-4-oxo-3,4-dihydrophthalazin-1-yl)methyl)benzo[d]isoxazol-3-yl)piperazin-1-yl)nicotinonitrile]
IC50 (His-GST-PARP7): > 2 µM
